From patent US8946282B2, “Indolin-2-one derivatives as protein kinase inhibitors” (Annji Pharmaceutical Co., Ltd., priority 2012, dated 2015)

Columns and labels:
[1] = target: aurora B (Homo sapiens, UniProt Q96GD4); assay: radioisotope-based P81 filter-binding assay, aurora B kinase; type: biochemical; conditions: for IC50: averaged from two independent dose-response curves, read-out: Enzyme assay IC50 Aur B; for inhibition at 1 µM: compound at 1.0 μM, mean values (n=2), read-out: percent inhibition of enzyme catalytic activity, Aur B (numbers in parentheses)
Sequence of aurora B (Q96GD4 whole entry): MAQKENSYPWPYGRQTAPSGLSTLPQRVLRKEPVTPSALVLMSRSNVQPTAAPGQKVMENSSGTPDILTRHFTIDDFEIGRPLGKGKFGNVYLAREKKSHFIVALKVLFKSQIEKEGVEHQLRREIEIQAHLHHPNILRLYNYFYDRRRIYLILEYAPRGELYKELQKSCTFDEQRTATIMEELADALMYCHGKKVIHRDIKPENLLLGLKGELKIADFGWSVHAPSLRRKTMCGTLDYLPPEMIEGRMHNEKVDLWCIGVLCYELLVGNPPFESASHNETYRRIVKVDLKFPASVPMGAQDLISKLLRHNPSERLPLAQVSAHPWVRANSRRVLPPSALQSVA
Description: (§1) Compounds of formula (I)-(IV) were evaluated for abilities in inhibiting protein kinases aurora B and FLT-3 activity using radioisotope-based P81 filter-binding assay (Table 1).

[2] = target: T1, FLT-3 (Homo sapiens, UniProt P36888); assay: radioisotope-based P81 filter-binding assay, FLT-3 kinase; type: biochemical; conditions: for IC50: averaged from two independent dose-response curves, read-out: Enzyme assay IC50 FLT-3
T1 sequence (P36888 27-993): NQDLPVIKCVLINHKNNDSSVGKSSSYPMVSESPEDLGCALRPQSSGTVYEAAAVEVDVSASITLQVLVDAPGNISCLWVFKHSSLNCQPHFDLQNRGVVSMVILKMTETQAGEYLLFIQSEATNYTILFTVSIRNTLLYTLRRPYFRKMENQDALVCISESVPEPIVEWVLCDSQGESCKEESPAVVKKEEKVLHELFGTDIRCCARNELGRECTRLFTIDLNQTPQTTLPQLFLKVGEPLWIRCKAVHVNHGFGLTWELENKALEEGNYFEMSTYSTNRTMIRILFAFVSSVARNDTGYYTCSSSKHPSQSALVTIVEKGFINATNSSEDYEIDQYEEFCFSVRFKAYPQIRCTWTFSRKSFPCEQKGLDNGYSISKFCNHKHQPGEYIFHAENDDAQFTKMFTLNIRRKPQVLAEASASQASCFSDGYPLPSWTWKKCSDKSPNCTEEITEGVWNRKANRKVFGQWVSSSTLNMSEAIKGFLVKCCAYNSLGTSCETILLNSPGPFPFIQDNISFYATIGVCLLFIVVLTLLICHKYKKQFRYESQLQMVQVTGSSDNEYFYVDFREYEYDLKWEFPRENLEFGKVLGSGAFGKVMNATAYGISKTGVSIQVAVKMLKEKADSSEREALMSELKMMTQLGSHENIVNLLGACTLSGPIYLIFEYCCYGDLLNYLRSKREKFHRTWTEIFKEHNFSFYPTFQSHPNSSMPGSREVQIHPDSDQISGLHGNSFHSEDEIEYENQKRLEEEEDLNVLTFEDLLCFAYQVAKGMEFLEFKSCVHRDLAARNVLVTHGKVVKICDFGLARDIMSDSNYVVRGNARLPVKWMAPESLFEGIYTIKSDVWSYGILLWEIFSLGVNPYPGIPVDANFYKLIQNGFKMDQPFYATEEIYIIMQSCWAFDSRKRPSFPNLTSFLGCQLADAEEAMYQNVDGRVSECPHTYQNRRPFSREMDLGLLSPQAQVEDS
Description: as §1

O=C1Nc2cc(NC(=O)N3CCN(c4ccc(C(F)(F)F)cc4)C3=O)ccc2/C1=C/c1ccc[nH]1 [D88, (Z)—N-(3-((1H-pyrrol-2-yl)methylene)-2-oxoindolin-6-yl)-2-oxo-3-(4-(trifluoromethyl)phenyl)imidazolidine-1-carboxamide]
melting point: > 300 °C | IC50 [1]: 824 nM | IC50 [2]: 498 nM

Cn1cccc(C(=O)Nc2ccc3c(c2)NC(=O)/C3=C\c2ccc[nH]2)c1=O [D116, (Z)—N-(3-((1H-pyrrol-2-yl)methylene)-2-oxoindolin-6-yl)-1-methyl-2-oxo-1,2-dihydropyridine-3-carboxamide]
melting point: > 300 °C | IC50 [1]: 102 nM | IC50 [2]: 510 nM

O=C1Nc2cc(NC(=O)N3CCN(c4ccccc4)C3=O)ccc2/C1=C/c1ccc[nH]1 [D83, (Z)—N-(3-((1H-pyrrol-2-yl)methylene)-2-oxoindolin-6-yl)-2-oxo-3-phenylimidazolidine-1-carboxamide]
melting point: 294 to 299 °C (dec.) | IC50 [1]: 17.3 nM | IC50 [2]: 359 nM

COc1ccc(C(=O)NC(=O)Nc2ccc3c(c2)NC(=O)/C3=C\c2ccncc2)cc1 [D21, (Z)-4-methoxy-N-(2-oxo-3-(pyridin-4-ylmethylene)indolin-6-ylcarbamoyl)benzamide]
melting point: 270 to 275 °C (dec.) | inhibition at 1 µM [1]: 7% | inhibition at 1 µM ([2]; compound at 1.0 μM, mean values (n=2), read-out: percent inhibition of enzyme catalytic activity, FLT-3 (numbers in parentheses)): 3.6%

COc1ccc(C(=O)NC(=O)Nc2ccc3c(c2)NC(=O)/C3=C\c2[nH]c(C)c(-c3ccccc3)c2C)cc1 [D43, (Z)—N-(3-((3,5-dimethyl-4-phenyl-1H-pyrrol-2-yl)methylene)-2-oxoindolin-6-ylcarbamoyl)-4-methoxybenzamide]
melting point: > 300 °C | inhibition at 1 µM [1]: 12.4% | IC50 [2]: > 1000 nM

COc1ccc(C(=O)NC(=O)Nc2cc3c(cc2F)/C(=C/c2[nH]c(C)c(CCC(=O)O)c2C)C(=O)N3)c(F)c1 [D60, (Z)-3-(5-((5-fluoro-6-(3-(2-fluoro-4-methoxybenzoyl)ureido)-2-oxoindolin-3-ylidene)methyl)-2,4-dimethyl-1H-pyrrol-3-yl)propanic acid]
melting point: 275 to 280 °C (dec.) | IC50 [1]: 1.5 nM | IC50 [2]: 16.3 nM

O=C1Nc2cc(NC(=O)N3CCN(C4CC4)C3=O)ccc2/C1=C/c1ccc[nH]1 [D81, (Z)—N-(3-((1H-pyrrol-2-yl)methylene)-2-oxoindolin-6-yl)-3-cyclopropyl-2-oxoimidazolidine-1-carboxamide]
melting point: 284 to 289 °C (dec.) | IC50 [1]: 19.9 nM | IC50 [2]: 1800 nM

COc1ccc(C(=O)NC(=O)Nc2ccc3c(c2)NC(=O)/C3=C\c2[nH]c(C)cc2C)cc1 [D44, (Z)—N-(3-((3,5-dimethyl-1H-pyrrol-2-yl)methylene)-2-oxoindolin-6-ylcarbamoyl)-4-methoxybenzamide]
melting point: 293 to 298 °C | IC50 [1]: 55.5 nM | IC50 [2]: > 1000 nM

Cc1[nH]c(/C=C2\C(=O)Nc3cc(NC(=O)NC(=O)c4ccc(C(F)(F)F)cc4)ccc32)c(C)c1C(=O)O [D35, (Z)-2,4-dimethyl-5-((2-oxo-6-(3-(4-(trifluoromethyl)benzoyl)ureido)indolin-3-ylidene)methyl)-1H-pyrrole-3-carboxylic acid]
melting point: > 300 °C | IC50 [1]: 3.1 nM | IC50 [2]: 231 nM

COc1ccc(C(=O)NC(=O)Nc2ccc3c(c2)NC(=O)/C3=C\c2[nH]c(C)c(C(=O)N3CCN(C)CC3)c2C)c(F)c1 [D64, (Z)—N-(3-((3,5-dimethyl-4-(4-methylpiperazine-1-carbonyl)-1H-pyrrol-2-yl)methylene)-2-oxoindolin-6-ylcarbamoyl)-2-fluoro-4-methoxybenzamide]
melting point: 250 to 255 °C (dec.) | IC50 [1]: 30.6 nM | IC50 [2]: 57.1 nM

Cc1[nH]c(/C=C2\C(=O)Nc3cc(NC(=O)NC(=O)c4ccccc4)ccc32)c(C)c1C(=O)O [D32, (Z)-5-((6-(3-benzoylureido)-2-oxoindolin-3-ylidene)methyl)-2,4-dimethyl-1H-pyrrole-3-carboxylic acid]
melting point: 270 to 275 °C (dec.) | IC50 [1]: 2.1 nM | IC50 [2]: 904 nM
